Source: patent publication US11566022B2, “3-(5-methoxy-1-oxoisoindolin-2-yl)piperidine-2,6-dione derivatives and uses thereof” (NOVARTIS AG, priority 2019, dated 2023)

How the values were obtained:
HiBit-WIZ fusion protein = HiBit-WIZ fusion protein (Homo sapiens, UniProt O95785+Q96SW2); experiment: Quantification of WIZ protein levels in HiBit tag fusion protein assay (WIZ HiBit assay in 293T cells); assay type: cell-based; parameters: Dmax: dose or concentration left out as unconfirmed; details: for Dmax / remaining activity at up to 25 µM: HEK-293T; for Dmax: read-out: % degradation of WIZ (100-Amax); for remaining activity at up to 25 µM: read-out: WIZ Amax; for DC50: read-out: WIZ AC50
[1] = SCD, current standard of care; cited from earlier work
[2] = DMSO-normalized, curve-fitted percentage of WIZ-HiBit remaining at 25 uM, 293T cells
[3] = WIZ HiBit assay in 293T cells, 10-point, 5-fold dose response, highest concentration 25 μM, about 18 hours

HiBit-WIZ fusion protein, sequence (O95785 whole entry, the tested form may be a part): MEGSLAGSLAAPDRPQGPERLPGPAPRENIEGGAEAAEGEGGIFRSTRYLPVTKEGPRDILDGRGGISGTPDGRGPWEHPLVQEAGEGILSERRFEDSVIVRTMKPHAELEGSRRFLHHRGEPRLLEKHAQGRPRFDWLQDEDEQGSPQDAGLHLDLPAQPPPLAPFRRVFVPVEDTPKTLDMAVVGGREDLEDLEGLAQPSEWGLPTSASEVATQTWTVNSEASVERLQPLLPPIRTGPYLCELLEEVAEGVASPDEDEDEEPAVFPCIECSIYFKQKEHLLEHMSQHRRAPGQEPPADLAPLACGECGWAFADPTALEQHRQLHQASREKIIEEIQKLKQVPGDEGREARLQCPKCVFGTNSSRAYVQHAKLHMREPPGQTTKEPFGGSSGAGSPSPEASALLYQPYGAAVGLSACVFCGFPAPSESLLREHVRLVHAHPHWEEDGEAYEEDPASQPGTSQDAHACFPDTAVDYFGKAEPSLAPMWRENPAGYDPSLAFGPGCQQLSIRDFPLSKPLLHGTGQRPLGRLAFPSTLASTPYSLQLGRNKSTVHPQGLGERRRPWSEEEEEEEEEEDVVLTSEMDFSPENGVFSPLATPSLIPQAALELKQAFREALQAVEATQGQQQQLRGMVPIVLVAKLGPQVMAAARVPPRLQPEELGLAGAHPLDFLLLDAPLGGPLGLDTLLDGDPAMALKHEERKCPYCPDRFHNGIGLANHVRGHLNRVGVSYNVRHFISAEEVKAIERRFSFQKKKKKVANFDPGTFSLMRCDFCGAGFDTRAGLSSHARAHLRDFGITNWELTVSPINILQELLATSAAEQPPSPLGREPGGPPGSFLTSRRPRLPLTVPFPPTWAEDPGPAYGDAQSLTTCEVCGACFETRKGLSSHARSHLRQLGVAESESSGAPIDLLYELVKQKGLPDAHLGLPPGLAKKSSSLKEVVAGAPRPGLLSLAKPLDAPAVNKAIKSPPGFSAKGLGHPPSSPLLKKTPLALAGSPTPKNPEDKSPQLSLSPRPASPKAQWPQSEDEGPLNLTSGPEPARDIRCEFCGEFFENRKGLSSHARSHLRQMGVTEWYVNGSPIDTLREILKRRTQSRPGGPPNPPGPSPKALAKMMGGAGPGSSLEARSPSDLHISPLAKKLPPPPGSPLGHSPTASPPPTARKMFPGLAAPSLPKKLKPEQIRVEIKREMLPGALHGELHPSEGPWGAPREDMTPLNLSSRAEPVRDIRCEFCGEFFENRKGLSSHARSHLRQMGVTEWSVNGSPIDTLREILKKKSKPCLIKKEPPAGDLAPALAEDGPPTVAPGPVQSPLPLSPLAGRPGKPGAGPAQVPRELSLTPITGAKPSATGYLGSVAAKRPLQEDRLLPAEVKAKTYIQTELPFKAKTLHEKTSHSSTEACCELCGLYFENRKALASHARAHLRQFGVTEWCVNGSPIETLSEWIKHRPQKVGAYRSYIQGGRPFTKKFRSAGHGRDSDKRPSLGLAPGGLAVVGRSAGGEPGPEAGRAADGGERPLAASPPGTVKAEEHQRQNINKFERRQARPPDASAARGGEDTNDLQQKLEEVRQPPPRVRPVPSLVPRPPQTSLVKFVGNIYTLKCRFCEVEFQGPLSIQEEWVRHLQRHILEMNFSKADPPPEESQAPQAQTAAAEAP
HiBit-WIZ fusion protein, sequence (Q96SW2 whole entry, the tested form may be a part): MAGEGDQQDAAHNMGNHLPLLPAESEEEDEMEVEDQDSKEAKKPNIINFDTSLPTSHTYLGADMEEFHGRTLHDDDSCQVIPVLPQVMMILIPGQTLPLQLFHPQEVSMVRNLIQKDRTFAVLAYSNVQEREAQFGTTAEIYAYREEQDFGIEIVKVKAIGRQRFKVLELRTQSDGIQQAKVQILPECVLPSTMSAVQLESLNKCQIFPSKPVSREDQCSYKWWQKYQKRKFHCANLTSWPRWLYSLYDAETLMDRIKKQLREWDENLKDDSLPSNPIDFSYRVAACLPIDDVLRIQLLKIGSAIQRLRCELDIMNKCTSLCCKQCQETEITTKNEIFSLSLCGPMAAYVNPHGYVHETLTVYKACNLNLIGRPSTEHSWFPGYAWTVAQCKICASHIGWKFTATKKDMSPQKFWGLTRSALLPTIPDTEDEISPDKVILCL
HiBit-WIZ fusion protein, sequence (Q16531 whole entry partner, the tested form may be a part): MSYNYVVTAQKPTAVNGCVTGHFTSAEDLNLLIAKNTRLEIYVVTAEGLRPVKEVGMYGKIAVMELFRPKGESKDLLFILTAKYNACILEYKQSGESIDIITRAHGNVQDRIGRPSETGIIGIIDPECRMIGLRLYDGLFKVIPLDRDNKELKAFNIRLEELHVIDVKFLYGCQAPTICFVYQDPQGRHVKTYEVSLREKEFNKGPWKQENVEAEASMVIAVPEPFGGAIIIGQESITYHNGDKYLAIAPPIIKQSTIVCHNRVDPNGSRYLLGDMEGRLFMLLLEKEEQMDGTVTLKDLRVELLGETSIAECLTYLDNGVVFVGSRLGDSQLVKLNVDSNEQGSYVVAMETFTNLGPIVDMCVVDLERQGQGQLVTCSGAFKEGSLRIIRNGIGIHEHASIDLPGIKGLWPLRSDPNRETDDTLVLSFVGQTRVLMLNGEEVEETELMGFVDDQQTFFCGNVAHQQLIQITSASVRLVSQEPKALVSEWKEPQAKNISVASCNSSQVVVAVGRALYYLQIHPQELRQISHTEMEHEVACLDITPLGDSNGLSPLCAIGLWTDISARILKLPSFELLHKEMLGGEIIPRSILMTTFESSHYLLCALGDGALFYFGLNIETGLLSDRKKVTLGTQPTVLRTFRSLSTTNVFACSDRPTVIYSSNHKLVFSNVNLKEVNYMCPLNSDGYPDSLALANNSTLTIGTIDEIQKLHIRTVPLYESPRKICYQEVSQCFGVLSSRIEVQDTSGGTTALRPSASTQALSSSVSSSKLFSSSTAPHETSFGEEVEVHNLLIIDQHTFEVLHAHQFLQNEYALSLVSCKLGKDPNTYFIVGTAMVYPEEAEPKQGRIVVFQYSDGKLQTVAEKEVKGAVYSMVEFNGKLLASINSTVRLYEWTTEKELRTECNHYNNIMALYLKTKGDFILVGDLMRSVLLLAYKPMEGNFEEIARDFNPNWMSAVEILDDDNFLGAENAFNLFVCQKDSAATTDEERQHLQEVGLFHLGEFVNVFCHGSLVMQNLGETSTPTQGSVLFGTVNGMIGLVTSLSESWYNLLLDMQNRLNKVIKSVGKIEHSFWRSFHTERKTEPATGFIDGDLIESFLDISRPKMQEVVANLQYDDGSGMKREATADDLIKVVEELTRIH

CC(C)(C)N1CCN(c2ccc(CN3CCCC[C@@H]3COc3ccc4c(c3)CN(C3CCC(=O)NC3=O)C4=O)cc2)CC1 (stereo partly drawn) [Compound I-229, 3-(5-(((R)-1-(4-(4-(tert-butyl)piperazin-1-yl)benzyl)piperidin-2-yl)methoxy)-1-oxoisoindolin-2-yl)piperidine-2,6-dione]
Dmax (HiBit-WIZ fusion protein; 100 minus Amax, 293T cells): 73.5% | remaining activity at up to 25 µM (HiBit-WIZ fusion protein; [2]): 26.6% | DC50 (HiBit-WIZ fusion protein; [3]): 2 nM

O=C1CCC(N2Cc3cc(OC[C@H]4CCCCN4Cc4ccc(N5CCN(C6CC6)CC5)cc4)ccc3C2=O)C(=O)N1 (stereo partly drawn) [Compound I-233, 3-(5-(((R)-1-(4-(4-cyclopropylpiperazin-1-yl)benzyl)piperidin-2-yl)methoxy)-1-oxoisoindolin-2-yl)piperidine-2,6-dione]
Dmax (HiBit-WIZ fusion protein; 100 minus Amax, 293T cells): 81.1% | remaining activity at up to 25 µM (HiBit-WIZ fusion protein; [2]): 18.9% | DC50 (HiBit-WIZ fusion protein; [3]): 0.73 nM

O=C1CCC(N2Cc3cc(OCC4CC(F)(F)CCN4)ccc3C2=O)C(=O)N1 (stereo not shown) [Compound I-251, 3-(5-((4,4-difluoropiperidin-2-yl)methoxy)-1-oxoisoindolin-2-yl)piperidine-2,6-dione]
Dmax (HiBit-WIZ fusion protein; 100 minus Amax, 293T cells): 78.3% | remaining activity at up to 25 µM (HiBit-WIZ fusion protein; [2]): 21.7% | DC50 (HiBit-WIZ fusion protein; [3]): 500 nM

NC(=O)NO [Hydroxyurea]
response rate [1]: less than 40%

O=C1CCC(N2Cc3cc(OC[C@H]4CCCCN4CC4CC(O)C4)ccc3C2=O)C(=O)N1 (stereo partly drawn) [I-141a, I-141b, 3-(5-(((R)-1-(((1r,3R)-3-hydroxycyclobutyl)methyl)piperidin-2-yl)methoxy)-1-oxoisoindolin-2-yl)piperidine-2,6-dione and 3-(5-(((R)-1-(((1s,3S)-3-hydroxycyclobutyl)methyl)piperidin-2-yl)methoxy)-1-oxoisoindolin-2-yl)piperidine-2,6-dione]
% degradation of WIZ (100-Amax) (HiBit-WIZ fusion protein; 100 minus Amax, at 25 uM, 293T cells): 72.36% | WIZ Amax (HiBit-WIZ fusion protein; [2]): 27.64% | AC50 (HiBit-WIZ fusion protein; [3]): 2460 nM
